{"source": "patent US11607462B2", "about": "“Systems and methods for minimally-invasive assessment of toxicity-induced tissue injury” (Northwestern University, priority 2017, dated 2023)", "key": {"[1]": {"test_system": "rats", "assay": "Histopathology of organs and tissues collected after single time point imaging", "experimental": "(§1) The single time point studies were terminal so that they allowed immediate tissue retrieval for cross-validation using histopathological analyses. […] Each animal was injected with about 2 mCi of ^99mTc-duramycin and after 1 hour the SPECT/CT/MRI data were acquired. From each group, the animals were immediately euthanized after imaging. The organs and tissues from three randomly selected individuals were collected, fixed and processed for histopathology."}, "[2]": {"test_system": "rats", "conditions": "cyclophosphamide single dose; each individual normalized to own baseline", "procedure": "This approach involved the acquisition of a baseline scan, prior to drug administration, followed by multiple post-treatment scans spanning the acute phase at 8, 48, 96, and 168 hours. […] In addition, the baseline scan for each animal serves as an internal control. The repeated noninvasive imaging allowed continuous monitoring of tissue changes with individualized data analysis."}, "[3]": {"test_system": "rats", "assay": "Quantitative ex vivo gamma counting of ^99mTc-duramycin uptake in excised tissues after chemotoxic drug", "experimental": "This initial quantitative study was conducted by determining changes in radioactivity uptake in excised tissues using gamma counting ex vivo. Experiments were designed to survey changes in ^99mTc-duramycin uptake in tissues from treated versus untreated control groups after administration of a single dosage of each chemotherapeutic drug for each population of animals. […] Accordingly, at designated time post-treatment, ^99mTc-duramycin was injected intravenously and each animal was euthanized for tissue collection and gamma counting. This is a standard practice in radionuclide studies that provides precise, quantitative biodistribution data for measuring changes in tracer uptake.\nThe data can be expressed in two ways—net change in ^99mTc-duramycin uptake per unit tissue in cyclophosphamide-treated tissues relative to the mean value of the non-treated control population (FIG. 1A), and fold changes in ^99mTc-duramycin uptake over the mean of control (1B).\nAn organ, such as the kidney, consists of different anatomical components (cortex, medulla, hilum), where the in vivo imaging data provide more spatial information by identifying signal changes within the substructures of an organ (see in vivo sections below).\nAlthough the ex vivo gamma counting is a standard practice in radionuclide studies, a notable limitation is that the tissue collection may be prone to sampling errors. In addition, this approach provides limited spatial information in terms of the distribution within an intact organ/tissue."}, "[4]": {"test_system": "rats", "assay": "In vivo single time point SPECT/CT/MRI imaging of ^99mTc-duramycin uptake (toxicity scan)", "experimental": "as §1\nA second group of animals was with methotrexate as directed by the literature in an effort to examine whether early changes in toxicity would correlate with increases in ^99mTc-duramycin uptake."}, "[5]": {"conditions": "cyclophosphamide single dose, day-2"}, "[6]": {"conditions": "cyclophosphamide single dose 80 mg/kg i.p., 2 days"}}, "data": [{"smiles": "N.N.[Cl][Pt][Cl]", "note": "[cisplatin]", "values": [{"measurement": "histopathology of kidney", "setting": "[1]; rat, in vivo", "result": "cellular degradation and significantly elevated apoptosis in the cortical region"}]}, {"smiles": "O=P1(N(CCCl)CCCl)NCCCO1", "note": "(stereo not drawn) [cyclophosphamide]", "values": [{"measurement": "apoptotic index, kidney medulla", "setting": "[1]; [5]", "result": "significantly elevated apoptotic index in the local tissue"}, {"measurement": "apoptotic index, thymus", "setting": "[1]; [5]", "result": "significantly elevated apoptotic index"}, {"measurement": "histopathology of bones (epiphysis regions, marrow)", "setting": "[1]; [5]", "result": "extensive decellularization in the marrow"}, {"measurement": "tissues with elevated coefficients of variation compared to the baseline", "setting": "[2]", "result": "bone, colon, gut, heart, skin, and thymus"}, {"measurement": "tissues with highest fold changes in ^99mTc-duramycin uptake", "setting": "[3]; [6]", "result": "thymus, adipose tissue, pancreas, brain, right ventricle, liver and bone"}, {"measurement": "tissues with the largest elevation in ^99mTc-duramycin uptake", "setting": "[3]; [6]", "result": "kidneys, liver, spleen, thymus, lung, small intestine and bone"}, {"measurement": "key tissues with changes in ^99mTc-duramycin uptake", "setting": "[4]; [5]", "result": "kidneys—medulla and cortex, spleen, thymus and gut"}, {"measurement": "region of the kidneys affected", "setting": "[4]; [5]", "result": "primarily affect the infundibulum of the kidneys"}, {"measurement": "tissues with statistically elevated, relatively low signals", "setting": "[4]; [5]", "result": "bones, adipose tissue, heart, lung, muscle, skin and stomach"}]}, {"smiles": "CN(Cc1cnc2nc(N)nc(N)c2n1)c1ccc(C(=O)N[C@@H](CCC(=O)O)C(=O)O)cc1", "note": "[methotrexate]", "values": [{"measurement": "histopathology of joints", "setting": "[1]; rat, in vivo", "result": "joint degeneration and thrombosis"}, {"measurement": "change in ^99mTc-duramycin uptake in tissues", "setting": "[3]; rat, in vivo, 100 mg/kg", "result": "notable elevation in ^99mTc-duramycin uptake in a number of tissues"}, {"measurement": "most prominent tissues according to fold changes", "setting": "[3]; rat, in vivo, 100 mg/kg", "result": "small intestine, colon, liver, thymus and kidneys"}, {"measurement": "tissues with the highest increase in ^99mTc-duramycin uptake", "setting": "[3]; rat, in vivo, 100 mg/kg", "result": "kidneys, small intestine, liver, and colon"}, {"measurement": "changes in skin signals", "setting": "[4]; rat, in vivo", "result": "non-uniform throughout the body"}, {"measurement": "signals in the joints", "setting": "[4]; rat, in vivo", "result": "drastically elevated signals in the joints"}, {"measurement": "tissues with highest changes in terms of fold elevation", "setting": "[4]; rat, in vivo", "result": "colon, kidney—medulla, bone, spleen, and kidney—cortex"}, {"measurement": "tissues with the highest signal changes as net ^99mTc-duramycin uptake per unit tissue", "setting": "[4]; rat, in vivo", "result": "kidneys and colon"}]}]}
